The record followed here is patent US20090036437A1, “PHARMACEUTICAL COMPOSITION COMPRISING PHENOXAZINIUM COMPOUND AS AN ACTIVE INGREDIENT” (priority 2005, published 2009).

SMILES strings stand for the structures. Marks after values point to notes of the source that are not given here. A value given as a limit tells only on which side of the number the result lay.

Series [1] is described as follows: in vitro growth-inhibiting assay of rat L6 cells. It counts as cell-based. Conditions: rat, L6 cells (rat skeletal myoblast cells); Table 3; 72 h, Alamar Blue; read-out: 50% growth-inhibiting concentration (nM) cytotoxicity L6. (In general: Alamar Blue is a resazurin reagent that responds to reducing activity.)
The test system of series [2] is Plasmodium berghei NK65 strain. As to the kind of experiment: in vivo treatment test by oral administration into mouse infected with malaria. Conditions: for Cure rate (%) / life-elongation effect: oral; for Cure rate (%): 5 days after infection. As to the method: This test was carried out in accordance with 4-day suppressive test that is a general in vivo test for the activity of an anti-malaria compound. Rodent malaria protozoa (Plasmodium berghei NK65 strain) were used in this test. Infected blood was prepared by infection with intraperitoneal administration into ICR male mouse (5 weeks age; SPF) and passage culture (subculture) thereafter. Blood was drawn from the vein of a tail of the moue infected with malaria, and its infection ratio was determined. After it was confirmed that the infection ratio had been increased up to an appropriated level (10˜20%), the blood infected with malaria was drawn from the heart of the mouse. The infection ratio and number (cells/mL) of erythrocytes were determined. An uninfected mouse (ICR male, 5 weeks age) was then infected with an injection of the infected erythrocytes so diluted with PBS as to comprise the protozoa of […] per dose (0.2 mL) into the vein of its tail.
A test sample was prepared by dissolving the test compounds according to the present invention into physiologic saline (Otsuka Pharmaceuticals Industries) to a predetermined concentration. In the case where the compound was insoluble in water, it was dissolved into DMSO or Tween 20 to prepare the test sample. A control group (no drug-administration group) was treated only with physiologic saline. Weight of the mouse was determined so that a dose would comprise 5.0 mg per 1 kg of its weight.
One group consisted of five mice. The intraperitoneal administration of the test sample started after two hours from the infection with malaria and continued for successive 4 days with a 24-hour interval. After 24 hours from the last administration, blood was drawn from the tail of the infected mouse to prepare a thin-layer smear, and the number of the erythrocytes infected with the malaria protozoa under a microscope with respect to the control group and the test sample groups. Parasitemia, i.e., the infection ratio with the malaria protozoa, was obtained by calculating an average value of the medium three mice except the two mice showing a maximum or minimum inhibition level. A cure rate (suppression) was then calculated from the resulting parasitemia in accordance with the following equation.
Cure rate: suppression (%)=(b−a)/b×100 • a: Infection ratio of the test sample group; and • b: Infection ratio of the control group.
The cure rate (%) of the mice after 5 days from the infection with malaria and the treatment with A-1 (60% purity) according to Example 5 (25-100 mg/kg/day, through the oral administration) were shown in TABLE 6. The oral administration, starting after two hours from the infection with malaria, consisted of four times with a 24-hour interval, 12 times with 8-hour interval or single dose.
The cure rate (%) of the mice after 5 days from the infection with malaria and the treatment with A-1 (100 mg/kg/day, through the oral administration of four times with a 24-hour interval or singe dose) were shown in TABLE 7.

The conditions of series [3]: mouse, in vivo, po.

For `CC[N+](CC)=c1ccc2nc3ccc(N(C)C)cc3oc-2c1` [Compound A-4], in series [1], the EC50 at 72 h stood at 4690 nM.
`CCN(CC)c1ccc2nc3ccc(=[N+](CC)CC)cc-3oc2c1.[Cl-]` [A-1 (>95% purity)]: the “Cure rate (%)” value in series [2] (Table 7, four times with 24-hour interval, 100 mg/kg/dose) was more than 99.99%; in series [2] (Table 7, single administration, 100 mg/kg/dose), 78.3%. Also, the life-elongation effect result in series [2] (all treatments of Table 7) is recorded as “significant life-elongation effect”. The “reduction in weight or change of the conditions of mice attributed to side effects” value in series [3] is on record as “No reduction in weight or change of the conditions of mice”.
On to `CCN(CC)c1ccc2nc3ccc(=[N+](CC)CC)cc-3oc2c1.[Cl-]` [A-1 (60% purity)], for which, in series [2] (oral 100 mg/kg four times with a 24-hour interval, one mouse died on day 21), the “mice still alive after 30 days” value is listed as “three mice of the four mice”. Further, the “presence of the protozoa of malaria in blood of surviving mice after 36 days” value in series [2] (oral 100 mg/kg four times with a 24-hour interval, three surviving mice) was “No protozoa of malaria was shown to be present in the blood”. For the same compound, the “Cure rate (%)” value in series [2] (12 times with 8-hour interval, 15 mg/kg/dose) was more than 99.99%; in series [2] (four times with a 24-hour interval, 25 mg/kg/dose) it was 82.3%; in series [2] (four times with a 24-hour interval, 50 mg/kg/dose) it was 98.6%; in series [2] (four times with a 24-hour interval, 90 mg/kg/dose), more than 99.99%; in series [2] (four times with a 24-hour interval, 100 mg/kg/dose, one of five mice died due to technical error), >99.99* %; in series [2] (single administration, 100 mg/kg/dose), more than 99.99%. In series [2] (all treatments of Table 6), the life-elongation effect entry is on record as “significant life-elongation effect”. For the same compound, in series [3], the “reduction in weight or change of the conditions of mice attributed to side effects” value is listed as “No reduction in weight or change of the conditions of mice”.
